{
  "source": "paper PMC3138742",
  "about": "(PLoS ONE, 2011)",
  "key": {"EGFR T790M/L858R": {"biological_target": "T1, EGFR T790M/L858R (Homo sapiens, UniProt P00533, L858R/T790M)", "T1 construct": "purchased Cell Signaling Technology Inc", "T1 sequence (P00533 25-1210 T790M/L858R)": "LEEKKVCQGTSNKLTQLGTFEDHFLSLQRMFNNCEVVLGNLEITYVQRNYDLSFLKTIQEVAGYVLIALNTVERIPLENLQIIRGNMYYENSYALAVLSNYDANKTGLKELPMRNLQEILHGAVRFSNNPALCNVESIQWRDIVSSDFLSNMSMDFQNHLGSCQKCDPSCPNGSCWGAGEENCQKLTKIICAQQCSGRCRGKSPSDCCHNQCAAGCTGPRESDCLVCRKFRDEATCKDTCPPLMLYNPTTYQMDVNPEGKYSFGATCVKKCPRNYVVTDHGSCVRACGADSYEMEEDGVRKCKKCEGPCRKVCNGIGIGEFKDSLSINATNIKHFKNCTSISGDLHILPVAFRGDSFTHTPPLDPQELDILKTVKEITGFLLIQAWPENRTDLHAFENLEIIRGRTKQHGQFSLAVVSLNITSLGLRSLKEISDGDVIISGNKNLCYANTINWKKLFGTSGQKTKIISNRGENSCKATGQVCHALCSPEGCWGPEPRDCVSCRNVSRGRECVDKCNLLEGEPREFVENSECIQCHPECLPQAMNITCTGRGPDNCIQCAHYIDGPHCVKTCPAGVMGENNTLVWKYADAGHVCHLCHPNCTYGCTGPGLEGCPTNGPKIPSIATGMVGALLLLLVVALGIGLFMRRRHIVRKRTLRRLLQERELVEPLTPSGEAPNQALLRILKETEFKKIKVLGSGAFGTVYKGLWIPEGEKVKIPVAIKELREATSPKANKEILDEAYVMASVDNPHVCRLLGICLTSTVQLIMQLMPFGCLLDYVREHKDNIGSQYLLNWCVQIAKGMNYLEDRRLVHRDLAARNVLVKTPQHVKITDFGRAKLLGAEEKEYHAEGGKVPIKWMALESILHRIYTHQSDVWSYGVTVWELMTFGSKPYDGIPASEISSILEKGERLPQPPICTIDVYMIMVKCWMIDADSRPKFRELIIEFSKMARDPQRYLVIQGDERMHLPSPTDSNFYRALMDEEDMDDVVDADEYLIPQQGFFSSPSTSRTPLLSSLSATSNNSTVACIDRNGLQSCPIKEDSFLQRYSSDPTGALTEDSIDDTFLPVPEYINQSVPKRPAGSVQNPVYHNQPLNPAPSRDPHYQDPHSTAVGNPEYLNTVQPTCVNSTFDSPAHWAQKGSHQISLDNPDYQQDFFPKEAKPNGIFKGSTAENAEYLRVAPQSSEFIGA", "experiment": "In vitro tyrosine kinase assay (ELISA)", "assay_type": "biochemical", "details": "EGFR T790M/L858R double mutant, cell-free; means ± SD", "experimental": "(§1) The tyrosine kinase activities were determined using enzyme-linked immunosorbant assay (ELISA). The serine/threonine kinase activities were detected by Caliper Mobility Shift Assay on EZ Reader (Caliper Life Sciences, MA) according to the instruction.\n(§2) The kinase domain of EGFR, ErbB-2, IGF1R, VEGFR2, FGFR1, PDGFRα, c-Src, c-Met, RON, c-Kit, EphA2 and EphB2 were expressed using the Bac-to-Bac^TM baculovirus expression system (Invitrogen, Carlsbad, CA, USA) and purified on Ni-NTA columns (QIAGEN Inc., Valencia, CA, USA). VEGFR1, PDGFRβ and c-Abl were purchased from Upstate Biotechnology Inc. (Charlottesville, Virginia, USA). […] EGF was purchased from R&D, Minneapolis, […]. Poly(Glu-Tyr)(4:1), the substrate of tyrosine kinase, was from Sigma-Aldrich Corp. St. Louis, MO, USA.\nThe tyrosine kinase activities were determined in 96-well ELISA plates (Corning, NY, USA) precoated with 20 μg/mL Poly (Glu,Tyr)4:1. First, 80 μL of 5 μM ATP solution diluted in kinase reaction buffer (50 mM HEPES pH 7.4, 20 mM MgCl2, 0.1 mM MnCl2, 0.2 mM Na3VO4, 1 mM DTT) was added to each well. […] Subsequently, the kinase reaction was initiated by the addition of purified tyrosine kinase proteins diluted in 10 μL of kinase reaction buffer solution. Experiments at each concentration were performed in duplicate. […]"}, "[1]": {"test_system": "SK-OV-3 cells transfected with EGFR siRNA", "experiment": "SRB assay after EGFR siRNA transfection", "assay_type": "cell-based, human", "details": "SK-OV-3, two independent pairs of EGFR siRNAs", "text": "Small interfering RNA (siRNA) against EGFR or ErbB2, as well as control siRNA, were designed and synthesized by Shanghai GenePharma Co. Ltd. One pair of ErbB2 siRNA (sequence: 5′ […] 3′), and two pairs of EGFR siRNA (#1 sequence: 5′ […] 3′; #2 sequence: 5′ […] 3′) were applied in this study. Different kind of siRNA (final concentration: 50 nmol/L) was transfected to SK-OV-3 cells with oligofectamine reagent (Invitrogen) according to the manufacturer's instruction."}, "Pim2": {"biological_target": "Pim2 (Homo sapiens, UniProt Q9P1W9)", "sequence (Q9P1W9 whole entry)": "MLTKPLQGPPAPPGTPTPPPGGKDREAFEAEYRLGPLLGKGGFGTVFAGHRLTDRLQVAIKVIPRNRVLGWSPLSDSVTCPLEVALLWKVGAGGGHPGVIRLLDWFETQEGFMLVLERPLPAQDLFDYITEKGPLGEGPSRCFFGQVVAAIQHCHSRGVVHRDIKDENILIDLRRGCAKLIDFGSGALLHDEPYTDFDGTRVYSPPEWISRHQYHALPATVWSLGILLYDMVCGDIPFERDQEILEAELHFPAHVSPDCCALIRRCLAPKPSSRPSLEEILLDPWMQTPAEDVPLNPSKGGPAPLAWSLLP", "details": "Pim2, cell-free", "experimental": "as §1, §2"}, "GSK3b": {"biological_target": "GSK3b (Homo sapiens, UniProt P49841)", "sequence (P49841 whole entry)": "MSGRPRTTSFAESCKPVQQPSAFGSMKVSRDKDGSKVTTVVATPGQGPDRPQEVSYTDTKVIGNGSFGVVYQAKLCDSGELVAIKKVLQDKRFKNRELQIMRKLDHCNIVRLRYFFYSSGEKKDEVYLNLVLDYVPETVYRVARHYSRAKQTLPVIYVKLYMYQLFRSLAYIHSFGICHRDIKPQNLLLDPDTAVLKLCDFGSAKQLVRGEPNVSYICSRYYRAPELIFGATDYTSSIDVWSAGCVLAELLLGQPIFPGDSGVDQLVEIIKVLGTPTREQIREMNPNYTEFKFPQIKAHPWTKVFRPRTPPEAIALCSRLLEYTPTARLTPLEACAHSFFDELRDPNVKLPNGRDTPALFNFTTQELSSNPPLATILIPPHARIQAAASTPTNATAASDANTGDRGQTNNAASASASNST", "details": "cell-free", "experimental": "as §1, §2"}, "p70S6K": {"biological_target": "p70S6K (Homo sapiens, UniProt P23443)", "sequence (P23443 whole entry)": "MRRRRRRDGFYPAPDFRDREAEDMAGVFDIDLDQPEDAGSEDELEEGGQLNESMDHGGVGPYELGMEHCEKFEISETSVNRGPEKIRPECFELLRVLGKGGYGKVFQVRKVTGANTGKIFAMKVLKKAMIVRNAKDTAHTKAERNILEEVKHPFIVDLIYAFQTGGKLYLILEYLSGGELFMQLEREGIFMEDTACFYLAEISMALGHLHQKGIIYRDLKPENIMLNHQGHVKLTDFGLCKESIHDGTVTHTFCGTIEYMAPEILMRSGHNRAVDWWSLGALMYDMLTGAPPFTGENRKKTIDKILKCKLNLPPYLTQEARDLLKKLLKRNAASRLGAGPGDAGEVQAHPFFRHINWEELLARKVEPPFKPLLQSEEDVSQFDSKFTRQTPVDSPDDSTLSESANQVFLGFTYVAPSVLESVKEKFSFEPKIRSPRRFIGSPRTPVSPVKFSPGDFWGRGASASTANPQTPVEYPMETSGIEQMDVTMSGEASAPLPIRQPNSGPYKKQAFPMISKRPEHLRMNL", "details": "cell-free", "experimental": "as §1, §2"}, "AKT1": {"biological_target": "AKT1 (Homo sapiens, UniProt P31749)", "sequence (P31749 whole entry)": "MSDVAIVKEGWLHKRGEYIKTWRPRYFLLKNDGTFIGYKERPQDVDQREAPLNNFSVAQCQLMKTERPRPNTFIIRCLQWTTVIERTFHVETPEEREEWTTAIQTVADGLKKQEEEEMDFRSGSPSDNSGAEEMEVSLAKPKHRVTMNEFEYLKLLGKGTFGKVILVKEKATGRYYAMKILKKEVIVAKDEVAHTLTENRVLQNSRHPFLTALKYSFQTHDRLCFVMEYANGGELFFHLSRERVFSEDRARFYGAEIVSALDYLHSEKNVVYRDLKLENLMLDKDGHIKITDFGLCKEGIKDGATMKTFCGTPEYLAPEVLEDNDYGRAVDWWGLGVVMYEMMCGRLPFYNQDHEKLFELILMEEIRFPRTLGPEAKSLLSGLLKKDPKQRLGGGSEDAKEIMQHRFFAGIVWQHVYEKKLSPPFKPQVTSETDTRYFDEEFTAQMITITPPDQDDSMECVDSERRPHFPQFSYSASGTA", "details": "AKT1, cell-free", "experimental": "as §1, §2"}, "CDK2": {"biological_target": "CDK2 (Homo sapiens, UniProt P24941)", "details": "CDK2, cell-free", "experimental": "as §1, §2"}, "AUR A": {"biological_target": "AUR A (Homo sapiens, UniProt O14965)", "sequence (O14965 whole entry)": "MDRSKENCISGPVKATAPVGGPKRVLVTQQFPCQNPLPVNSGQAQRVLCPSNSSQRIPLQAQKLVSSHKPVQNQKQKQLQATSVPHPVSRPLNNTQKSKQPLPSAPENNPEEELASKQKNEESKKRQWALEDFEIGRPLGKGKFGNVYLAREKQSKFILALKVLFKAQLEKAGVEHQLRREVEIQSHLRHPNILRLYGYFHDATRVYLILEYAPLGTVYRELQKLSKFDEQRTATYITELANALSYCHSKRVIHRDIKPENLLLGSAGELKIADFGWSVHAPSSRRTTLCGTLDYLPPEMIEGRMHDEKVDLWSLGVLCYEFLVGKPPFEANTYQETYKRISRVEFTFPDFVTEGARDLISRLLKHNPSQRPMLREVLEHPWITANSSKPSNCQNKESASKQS", "details": "cell-free", "experimental": "as §1, §2"}, "PKCb2": {"biological_target": "PKCb2 (Homo sapiens, UniProt P05771)", "sequence (P05771 1-673 isoform P05771-2)": "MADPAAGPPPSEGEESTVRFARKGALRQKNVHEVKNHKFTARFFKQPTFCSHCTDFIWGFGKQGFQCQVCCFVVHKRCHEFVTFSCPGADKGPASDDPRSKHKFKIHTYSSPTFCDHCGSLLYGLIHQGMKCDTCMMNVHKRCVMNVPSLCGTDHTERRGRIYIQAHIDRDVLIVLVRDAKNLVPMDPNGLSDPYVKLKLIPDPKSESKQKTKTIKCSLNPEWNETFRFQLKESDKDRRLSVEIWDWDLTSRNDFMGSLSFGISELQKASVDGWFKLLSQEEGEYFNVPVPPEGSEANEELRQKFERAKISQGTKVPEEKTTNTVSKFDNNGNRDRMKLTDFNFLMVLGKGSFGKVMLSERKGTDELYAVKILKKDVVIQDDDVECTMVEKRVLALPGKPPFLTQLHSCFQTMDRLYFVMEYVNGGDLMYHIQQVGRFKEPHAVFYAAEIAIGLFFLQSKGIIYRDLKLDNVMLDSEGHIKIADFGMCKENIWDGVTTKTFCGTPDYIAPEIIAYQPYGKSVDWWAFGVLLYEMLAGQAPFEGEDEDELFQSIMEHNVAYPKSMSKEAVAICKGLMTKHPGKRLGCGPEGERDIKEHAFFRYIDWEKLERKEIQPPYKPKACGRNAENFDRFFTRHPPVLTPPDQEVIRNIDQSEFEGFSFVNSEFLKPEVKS", "details": "PKCb2, cell-free", "experimental": "as §1, §2"}, "SK-OV-3 xenograft": {"test_system": "SK-OV-3 xenograft", "experiment": "Human tumor xenograft model, tumor growth", "assay_type": "in vivo", "details": "nude mice, p.o. twice daily", "experimental": "(§3) The mice were housed and maintained under specific-pathogen free (SPF) conditions. All animal procedures were performed according to the protocol approved by the Institutional Animal Care and Use Committee at Shanghai Institute of Materia Medica, Chinese Academy of Sciences (SIMM-AE-DJ-2010-01). Under sterile conditions, well-developed tumors were cut into 1-mm^3 fragments and transplanted s.c. into the right flank of nude mice using a trocar. When the tumor reached a volume reached 100 to 200 mm^3, the mice were randomly assigned into control and treatment groups. […] The sizes of the tumors were measured twice per week using microcalipers. The tumor volume (V) was calculated as follows: V = (length×width^2)/2. The body weights of the mice were observed simultaneously."}, "A549 xenograft": {"test_system": "A549 xenograft", "experiment": "Human tumor xenograft model, tumor growth", "assay_type": "in vivo", "details": "nude mice, p.o. twice daily", "experimental": "as §3"}, "HO-8910 xenograft": {"test_system": "HO-8910 xenograft", "experiment": "Human tumor xenograft model, tumor growth", "assay_type": "in vivo", "details": "nude mice, p.o. twice daily", "experimental": "as §3"}, "Calu-3 xenograft": {"test_system": "Calu-3 xenograft", "experiment": "Human tumor xenograft model, tumor growth", "assay_type": "in vivo", "details": "nude mice, p.o. twice daily", "experimental": "as §3"}, "MDA-MB-468 cells": {"test_system": "MDA-MB-468 cells", "experiment": "Cell proliferation SRB assay", "assay_type": "cell-based", "details": "Homo sapiens, MDA-MB-468, 72 h, range given for four cell lines together, read-out: IC50 (antiproliferative)", "experimental": "Cell proliferation was evaluated using the SRB (Sulforhodamine B) assay as previously described. Briefly, cells were seeded into 96-well plates and grown for 24 h. […] The medium remained unchanged until the completion of the experiment. The cells were then fixed with 10% precooled trichloroacetic acid (TCA) for 1 h at 4°C and stained for 15 min at room temperature with 100 μL of 4 mg/mL SRB solution (Sigma) in 1% acetic acid. The SRB was then removed, and the cells were quickly rinsed five times with 1% acetic acid. After cells were air-dried, protein-bound dye was dissolved in 150 μL of 10 mmol/L Tris base for 5 min and measured at 515 nm using a multiwell spectrophotometer (VERSAmax, Molecular Devices). […] The IC50 value was obtained by the Logit method and was determined from the results of at least 3 independent tests."}},
  "note": "“Also recorded” adds a separate entry of the source.",
  "data": [
    {"smiles": "C=CC(=O)Nc1ccc2ncnc(Nc3ccc(OCc4cccc(F)c4)c(Cl)c3)c2c1", "note": "[AST1306]", "values": [
      {"measurement": "IC50", "setting": "EGFR T790M/L858R", "result": "0.012 ± 0.002", "unit": "µM"},
      {"measurement": "antiproliferative activity after EGFR knockdown", "setting": "[1]", "result": "did not significantly affect"},
      {"measurement": "IC50", "setting": "Pim2", "result": "> 10", "unit": "µM"},
      {"measurement": "IC50", "setting": "GSK3b", "result": "> 10", "unit": "µM"},
      {"measurement": "IC50", "setting": "p70S6K", "result": "> 10", "unit": "µM"},
      {"measurement": "IC50", "setting": "AKT1", "result": "> 10", "unit": "µM"},
      {"measurement": "IC50", "setting": "CDK2", "result": "> 10", "unit": "µM"},
      {"measurement": "IC50", "setting": "AUR A", "result": "> 10", "unit": "µM"},
      {"measurement": "IC50", "setting": "PKCb2", "result": "> 10", "unit": "µM"},
      {"measurement": "tumor growth", "setting": "SK-OV-3 xenograft", "result": "dramatic suppression of tumor growth; also recorded: more efficacious than lapatinib"},
      {"measurement": "tumors after treatment for 7 d", "setting": "SK-OV-3 xenograft; 7 d", "result": "tumors almost completely disappeared"},
      {"measurement": "tumor growth", "setting": "A549 xenograft", "result": "only slightly suppressed tumor growth"},
      {"measurement": "tumor growth", "setting": "HO-8910 xenograft", "result": "only slightly suppressed tumor growth"},
      {"measurement": "tumor growth", "setting": "Calu-3 xenograft", "result": "dramatic suppression of tumor growth"},
      {"measurement": "IC50", "setting": "MDA-MB-468 cells", "result": "6.2 to 7.5", "unit": "µM"}
    ]}
  ]
}
